What was measured:
[1] = biological target: DYRK1A kinase (Homo sapiens, UniProt Q13627); experiment: DYRK1A kinase activity (Ser/Thr 18 peptide Z-lyte FRET assay); assay type: biochemical; conditions: recombinant DYRK1A, 30 μM ATP, one hour at room temperature;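 also: kinase activity read as coumarin/fluorescein emission ratio after development step, with unphosphorylated and phosphorylated peptide forms setting 0% and 100% controls, values from dose-response curves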
[2] = biological target: GSK3β kinase (Homo sapiens, UniProt P49841); experiment: GSK3β kinase activity (Ser/Thr 09 peptide Z-lyte FRET assay); assay type: biochemical; conditions: recombinant kinase, 46 μM ATP, one hour at room temperature; read-out: EC50
[3] = tested on: secreted cytokines TNFα, IL-6 and KC-GRO; experiment: Secreted cytokines in Lipopolysaccharide-stimulated BV-2 cells (Table 9 does not say which cytokine); assay type: cell-based, mouse; conditions: Mus musculus, BV-2, 5 h; read-out: EC50
[4] = tested on: SW480 colon carcinoma cells; experiment: Cell viability assay (CellTiter-Glo); conditions: Homo sapiens; for EC50: SW480, 96 h; for inhibition at 10 µM: SW480, read-out: percent inhibition at 10 μM
[5] = tested on: Wnt-responsive Sp5-Luc reporter in SW480 colon carcinoma cells; experiment: Screening assay for Wnt activity (Sp5-Luc reporter gene assay); conditions: Homo sapiens; for EC50: SW480; for inhibition at 10 µM: SW480, read-out: percent inhibition at 10 μM
[6] = tested on: IL-6; experiment: IL-6 inhibition in LPS-stimulated human peripheral blood mononuclear cells (HTRF); conditions: Homo sapiens, PBMC; for EC50: 22 h; for inhibition at 10 µM: read-out: percentage in parentheses after EC50 >10
[7] = tested on: α-smooth muscle actin (aSMA) positive LL29 cells; experiment: Inhibition of the fibrotic process: αSMA staining in TGF-β1 treated LL29 fibroblasts from IPF patients; conditions: Homo sapiens, Fibroblast; for EC50: 96 h; for inhibition at 10 µM: read-out: percentage in parentheses after EC50 >10

GSK3β kinase, sequence (P49841 whole entry): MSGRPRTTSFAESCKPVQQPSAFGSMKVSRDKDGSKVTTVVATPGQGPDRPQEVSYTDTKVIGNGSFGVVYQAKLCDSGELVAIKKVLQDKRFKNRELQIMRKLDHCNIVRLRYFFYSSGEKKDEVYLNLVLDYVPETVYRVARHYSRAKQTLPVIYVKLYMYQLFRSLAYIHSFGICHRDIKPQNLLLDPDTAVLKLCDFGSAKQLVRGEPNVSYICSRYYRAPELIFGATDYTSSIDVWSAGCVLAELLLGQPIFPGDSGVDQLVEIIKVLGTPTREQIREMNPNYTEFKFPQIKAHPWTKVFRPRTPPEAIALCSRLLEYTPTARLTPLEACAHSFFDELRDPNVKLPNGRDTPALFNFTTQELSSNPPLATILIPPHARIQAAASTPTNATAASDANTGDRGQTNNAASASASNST

Compound	EC50 [1]	EC50 [2]	EC50 [3]	EC50 [4]	EC50 [5]	EC50 [6]	inhibition at 10 µM [4]	inhibition at 10 µM [5]	inhibition at 10 µM [6]	EC50 [7]	inhibition at 10 µM [7]
CN1CCC(C(=O)Nc2cc3cc(-c4cnsc4)cnc3cn2)CC1 [Compound 3412, N-(3-(Isothiazol-4-yl)-1,7-naphthyridin-6-yl)-1-methylpiperidine-4-carboxamide]	0.04 µM	> 10 µM	1.5 µM	> 10 µM	> 10 µM	> 10 µM	41.5%	47.1%	2.7%	> 10 µM	46.2%
Nc1cncc(-c2cnc3cnc(NC(=O)c4ccc(OC5CCNCC5)cc4)cc3c2)c1 [Compound 3524, N-(3-(5-Aminopyridin-3-yl)-1,7-naphthyridin-6-yl)-4-(piperidin-4-yloxy) benzamide]	0.011 µM	> 10 µM	0.582 µM	3.71 µM	3.55 µM	> 10 µM	–	–	5.6%	> 10 µM	50%
CN1CC=C(c2cc(C(=O)Nc3cc4cc(-c5cncc(NC(C)(C)C)n5)cnc4cn3)ccn2)CC1 [Compound 3587, N-(3-(6-(tert-Butylamino)pyrazin-2-yl)-1,7-naphthyridin-6-yl)-1′-methyl-1′,2′,3′,6′-tetrahydro-[2,4′-bipyridine]-4-carboxamide]	0.001 µM	> 10 µM	0.011 µM	0.821 µM	0.357 µM	7.67 µM	–	–	–	1.44 µM	–
O=C(Nc1cc2cc(-c3cncc(NC4CCNCC4)n3)cnc2cn1)C1CCOCC1 [Compound 3597, N-(3-(6-(Piperidin-4-ylamino)pyrazin-2-yl)-1,7-naphthyridin-6-yl) tetrahydro-2H-pyran-4-carboxamide]	0.006 µM	> 10 µM	≥ 10 µM	> 10 µM	> 10 µM	> 10 µM	8.1%	7.6%	0%	> 10 µM	7.7%
O=C(Nc1cc2cc(-c3cncc(N[C@H]4CCNC[C@@H]4F)n3)cnc2cn1)C1CC1 [Compound 3599, N-(3-(6-(((3S,4S)-3-Fluoropiperidin-4-yl)amino)pyrazin-2-yl)-1,7-naphthyridin-6-yl)cyclopropanecarboxamide]	0.008 µM	0.78 µM	0.832 µM	8.85 µM	> 10 µM	> 10 µM	–	41.3%	40.1%	3.01 µM	–
CN1CCC(n2cc(C(=O)Nc3cc4cc(-c5cncc6[nH]ccc56)cnc4cn3)cn2)CC1 [Compound 3616, N-(3-(1H-Pyrrolo[2,3-c]pyridin-4-yl)-1,7-naphthyridin-6-yl)-1-(1-methylpiperidin-4-yl)-1H-pyrazole-4-carboxamide]	0.029 µM	> 10 µM	1.2 µM	0.504 µM	0.485 µM	2.37 µM	–	–	–	3.16 µM	–
CC(C)n1cc(C(=O)Nc2cc3cc(-c4cncc(NC5CCN(C)CC5)n4)cnc3cn2)cn1 [Compound 3627, 1-Isopropyl-N-(3-(6-((1-methylpiperidin-4-yl)amino)pyrazin-2-yl)-1,7-naphthyridin-6-yl)-1H-pyrazole-4-carboxamide]	0.007 µM	> 10 µM	0.708 µM	3.42 µM	1.68 µM	> 10 µM	–	–	10.6%	> 10 µM	33.4%
CN1CCC(n2cc(C(=O)Nc3cc4cc(-c5cnn(C)c5)ncc4cn3)cn2)CC1 [Compound 3856, N-(6-(1-Methyl-1H-pyrazol-4-yl)-2,7-naphthyridin-3-yl)-1-(1-methylpiperidin-4-yl)-1H-pyrazole-4-carboxamide]	0.01 µM	1.75 µM	0.194 µM	0.446 µM	0.367 µM	3.99 µM	–	–	–	> 10 µM	17.5%
CC(C)OC(=O)N1CCC(n2cc(C(=O)Nc3cc4cc(-c5cnn(C)c5)ncc4cn3)cn2)CC1 [Compound 3861, Isopropyl 4-(4-((6-(1-methyl-1H-pyrazol-4-yl)-2,7-naphthyridin-3-yl)carbamoyl)-1H-pyrazol-1-yl)piperidine-1-carboxylate]	0.005 µM	1.06 µM	0.343 µM	0.933 µM	0.824 µM	> 10 µM	–	–	5.8%	0.597 µM	–

The next lines start with results.

EC50 [1]	EC50 [2]	EC50 [3]	EC50 [4]	EC50 [5]	EC50 [6]	Compound	inhibition at 10 µM [4]	inhibition at 10 µM [5]	inhibition at 10 µM [6]	EC50 [7]	inhibition at 10 µM [7]
0.01 µM	0.397 µM	0.972 µM	9.64 µM	> 10 µM	> 10 µM	CN1CCN(c2cc(C(=O)Nc3cc4cc(-c5cnn(C)c5)ncc4cn3)ccn2)CC1 [Compound 3774, N-(6-(1-Methyl-1H-pyrazol-4-yl)-2,7-naphthyridin-3-yl)-2-(4-methylpiperazin-1-yl)isonicotinamide]	–	54.7%	10.8%	5.86 µM	–
0.004 µM	0.187 µM	0.72 µM	7.72 µM	3.97 µM	> 10 µM	CN1CCN(c2ccc(C(=O)Nc3cc4cc(-c5cnn(C)c5)ncc4cn3)cn2)CC1 [Compound 3778, N-(6-(1-Methyl-1H-pyrazol-4-yl)-2,7-naphthyridin-3-yl)-6-(4-methylpiperazin-1-yl)nicotinamide]	–	–	4.2%	0.694 µM	–
0.004 µM	2.34 µM	5.3 µM	1.97 µM	1.08 µM	> 10 µM	CN1CCC(Nc2cncc(C(=O)Nc3cc4cc(-c5cnn(C)c5)ncc4cn3)c2)CC1 [Compound 3783, N-(6-(1-Methyl-1H-pyrazol-4-yl)-2,7-naphthyridin-3-yl)-5-((1-methylpiperidin-4-yl)amino)nicotinamide]	–	–	1.7%	2.1 µM	–
0.01 µM	1.35 µM	3.9 µM	3.42 µM	0.482 µM	> 10 µM	CN(C)CCNc1cc(C(=O)Nc2cc3cc(-c4cnn(C)c4)ncc3cn2)ccn1 [Compound 3791, 2-((2-(Dimethylamino)ethyl)amino)-N-(6-(1-methyl-1H-pyrazol-4-yl)-2,7-naphthyridin-3-yl)isonicotinamide]	–	–	0%	4.95 µM	–
0.008 µM	0.409 µM	0.054 µM	7.02 µM	0.427 µM	> 10 µM	CN(C)Cc1ccc(C(=O)Nc2cc3cc(-c4cnn(C)c4)ncc3cn2)cc1 [Compound 3797, 4-((Dimethylamino)methyl)-N-(6-(1-methyl-1H-pyrazol-4-yl)-2,7-naphthyridin-3-yl)benzamide]	–	–	7%	2.7 µM	–
0.01 µM	0.763 µM	0.533 µM	9.32 µM	0.994 µM	> 10 µM	CN1CCc2ccc(C(=O)Nc3cc4cc(-c5cnn(C)c5)ncc4cn3)cc2C1 [Compound 3829, 2-Methyl-N-(6-(1-methyl-1H-pyrazol-4-yl)-2,7-naphthyridin-3-yl)-1,2,3,4-tetrahydroisoquinoline-7-carboxamide]	–	–	5.3%	0.759 µM	–
0.005 µM	1.47 µM	1 µM	> 10 µM	0.22 µM	> 10 µM	Cn1cc(-c2cc3cc(NC(=O)c4ccc5ccoc5c4)ncc3cn2)cn1 [Compound 3836, N-(6-(1-Methyl-1H-pyrazol-4-yl)-2,7-naphthyridin-3-yl)benzofuran-6-carboxamide]	33.9%	–	1.4%	> 10 µM	10%
0.006 µM	1.16 µM	≥ 10 µM	> 10 µM	> 10 µM	> 10 µM	Cn1cc(-c2cc3cc(NC(=O)c4ccc5nccnc5c4)ncc3cn2)cn1 [Compound 3843, N-(6-(1-Methyl-1H-pyrazol-4-yl)-2,7-naphthyridin-3-yl)quinoxaline-6-carboxamide]	14%	25%	6.8%	1.28 µM	–
0.007 µM	0.416 µM	0.3 µM	2.31 µM	2.69 µM	> 10 µM	Cc1ncc(C(=O)Nc2cc3cc(-c4cnc(C)n4C)ncc3cn2)s1 [Compound 4074, N-(6-(1,2-Dimethyl-1H-imidazol-5-yl)-2,7-naphthyridin-3-yl)-2-methylthiazole-5-carboxamide]	–	–	14%	3.19 µM	–
0.008 µM	0.966 µM	≥ 10 µM	> 10 µM	5.6 µM	> 10 µM	Cn1cncc1-c1cc2cc(NC(=O)c3ccc(F)cc3)ncc2cn1 [Compound 4075, 4-Fluoro-N-(6-(1-methyl-1H-imidazol-5-yl)-2,7-naphthyridin-3-yl) benzamide]	35.4%	–	8.1%	> 10 µM	39.2%

Reference: US10703748B2, “Diazanaphthalen-3-yl carboxamides and preparation and use thereof” (Samumed, LLC, priority 2017, dated 2020)
